The values that follow come from PubChem BioAssay (NCI).

Test systems include SF-295 CNS; A549 NSCLC; SK-MEL-2 melanoma; MALME-3M melanoma; SK-OV-3 ovarian; 786-0 renal; NCI-H460 lung; SK-MEL-5 melanoma; OVCAR-5 ovarian; OVCAR-3 ovarian; MDA-N.
Holding throughout (assay): NCI-60 cell line screen, 48 h

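Assay format: 96-well plates, 48-hour exposure. TGI is the concentration that stops growth completely.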 Where a SMILES comes first, the peptide text is derived from it. The star is where a group is joined. Boc = CC(C)(C)OC(=O)*; OSu = O=C1CCC(=O)N1O*

With `Cc1[nH]c2c(c1C)S(=O)(=O)c1cc3ccccc3nc1N2`, the TGI was greater than 100 µM with SF-295 CNS; greater than 100 µM in the assay on A549 NSCLC; greater than 100 µM with SK-MEL-2 melanoma; 45.2 µM with MALME-3M melanoma; greater than 100 µM in the assay on SK-OV-3 ovarian; 30.4 µM in the assay with 786-0 renal. Further, the TGI in the assay with NCI-H460 lung was greater than 100 µM; in the assay with SK-MEL-5 melanoma, 28.8 µM; with OVCAR-5 ovarian, 59 µM; in the assay on OVCAR-3 ovarian, 45.2 µM; with MDA-N it was 39.4 µM.
For `O=C1NC(SSC2=NNC3(C(=O)N2)c2ccccc2-c2ccccc23)=NNC12c1ccccc1-c1ccccc12`, the TGI in the assay on SF-295 CNS, with A549 NSCLC, in the assay with SK-MEL-2 melanoma, in the assay with MALME-3M melanoma, with SK-OV-3 ovarian and in the assay on 786-0 renal was greater than 10 µM in each case. Further, the TGI with NCI-H460 lung, in the assay with SK-MEL-5 melanoma, in the assay on OVCAR-5 ovarian, in the assay on OVCAR-3 ovarian and in the assay on MDA-N was greater than 10 µM each time.
As to `CC(NC(=O)C(NC(=O)OC(C)(C)C)C(C)C)C(=O)NCC(=O)ON1C(=O)CCC1=O` (stereo not drawn) (Boc-Val-Ala-Gly-OSu; configuration not given here), the TGI in the assay with SF-295 CNS, with A549 NSCLC, in the assay on SK-MEL-2 melanoma, in the assay with MALME-3M melanoma, with SK-OV-3 ovarian and in the assay with 786-0 renal was greater than 100 µM each time. Besides, the TGI in the assay with NCI-H460 lung, in the assay on SK-MEL-5 melanoma, with OVCAR-5 ovarian, in the assay on OVCAR-3 ovarian and in the assay on MDA-N was greater than 100 µM each time.
As to `O=C(O)c1cc2ccccc2c(N=Nc2ccc(S(=O)(=O)Nc3nccs3)cc2)c1O`, the TGI in the assay on SF-295 CNS, in the assay with A549 NSCLC, in the assay with SK-MEL-2 melanoma, with MALME-3M melanoma, in the assay on SK-OV-3 ovarian and with 786-0 renal was greater than 100 µM in each case. The TGI with NCI-H460 lung, with SK-MEL-5 melanoma, with OVCAR-5 ovarian, in the assay on OVCAR-3 ovarian and with MDA-N was greater than 100 µM in each case.
For the molecule `CCN(CC)CC1CCCCN1CC(=O)N1c2ccccc2NC(=O)CC1C` (configuration not stated), the TGI with SF-295 CNS, in the assay with A549 NSCLC, in the assay with SK-MEL-2 melanoma, in the assay with MALME-3M melanoma, in the assay on SK-OV-3 ovarian and with 786-0 renal was greater than 100 µM in each case. The TGI with NCI-H460 lung, in the assay with SK-MEL-5 melanoma, in the assay with OVCAR-5 ovarian, with OVCAR-3 ovarian and with MDA-N was greater than 100 µM each time.
In the case of `CCCCc1ccc(Nc2nc3c(ncn3C3CC(O)C(CN=[N+]=[N-])O3)c(=O)[nH]2)cc1` (configuration not stated), the TGI in the assay with SF-295 CNS, with A549 NSCLC, in the assay with SK-MEL-2 melanoma, in the assay on MALME-3M melanoma, with SK-OV-3 ovarian and in the assay on 786-0 renal was greater than 100 µM each time. For the same molecule, the TGI in the assay with NCI-H460 lung, in the assay with SK-MEL-5 melanoma, in the assay on OVCAR-5 ovarian, in the assay on OVCAR-3 ovarian and in the assay on MDA-N was greater than 100 µM each time.
Take `COc1ccc2nc3ccc(OC)cc3c(SCCO)c2c1`: the TGI in the assay on SF-295 CNS is greater than 100 µM; in the assay with A549 NSCLC, greater than 100 µM; in the assay on SK-MEL-2 melanoma it was greater than 84 µM; with MALME-3M melanoma it was greater than 96.2 µM; with SK-OV-3 ovarian, greater than 100 µM; in the assay on 786-0 renal it was greater than 60 µM. The TGI in the assay with NCI-H460 lung, with SK-MEL-5 melanoma, in the assay with OVCAR-5 ovarian, in the assay on OVCAR-3 ovarian and in the assay on MDA-N was greater than 100 µM in each case.
In the case of `COc1ccc2nc3c([N+](=O)[O-])ccc4c3c(c2c1)NCCN4CCO`, the TGI with SF-295 CNS amounted to 1.71 µM; with A549 NSCLC, 2.68 µM; in the assay with SK-MEL-2 melanoma, 1.87 µM; with MALME-3M melanoma, 1.45 µM; with SK-OV-3 ovarian, 3.58 µM; with 786-0 renal it was 1.46 µM. The TGI in the assay on NCI-H460 lung was 1.18 µM; with SK-MEL-5 melanoma, 1.15 µM; in the assay on OVCAR-5 ovarian, 2.95 µM; in the assay with OVCAR-3 ovarian, 2.91 µM; with MDA-N, 1.64 µM.
For the molecule `NC(N)=N/N=C/c1nc2n(c1[N+](=O)[O-])CCS2`, the TGI in the assay on SF-295 CNS is 98.4 µM; in the assay on A549 NSCLC it was greater than 100 µM; in the assay with SK-MEL-2 melanoma, 44.7 µM; in the assay on MALME-3M melanoma it was 30.8 µM; in the assay with SK-OV-3 ovarian, greater than 100 µM; with 786-0 renal, greater than 100 µM. The TGI in the assay on NCI-H460 lung is 48.4 µM; with SK-MEL-5 melanoma, 34.4 µM; with OVCAR-5 ovarian, greater than 100 µM; in the assay with OVCAR-3 ovarian it was 70.2 µM; with MDA-N it was greater than 100 µM.
As for `CC(=O)OCCCOCn1c(Cc2ccccc2)c(C)c(=O)[nH]c1=O`, the TGI with SF-295 CNS, in the assay with A549 NSCLC, in the assay on SK-MEL-2 melanoma, with MALME-3M melanoma, in the assay on SK-OV-3 ovarian and in the assay with 786-0 renal was greater than 100 µM throughout. The TGI in the assay with NCI-H460 lung, in the assay with SK-MEL-5 melanoma, with OVCAR-5 ovarian, in the assay on OVCAR-3 ovarian and with MDA-N was greater than 100 µM throughout.
Turning to `Cc1cnc2sn(-c3ccc(Oc4ccccc4)cc3)c(=O)c2c1`, the TGI is 39.3 µM in the assay with SF-295 CNS; 46 µM in the assay on A549 NSCLC; greater than 100 µM with SK-MEL-2 melanoma; 9.07 µM in the assay with MALME-3M melanoma; greater than 100 µM with SK-OV-3 ovarian; 30.7 µM in the assay on 786-0 renal. The TGI with NCI-H460 lung was 23.1 µM; in the assay with SK-MEL-5 melanoma it was 39.6 µM; with OVCAR-5 ovarian, 35.3 µM; in the assay on OVCAR-3 ovarian, 23.3 µM; in the assay with MDA-N, 51.1 µM.
Regarding `C[C@H](CCC(=O)NCCS(=O)(=O)O)[C@H]1CC[C@H]2[C@@H]3CC[C@@H]4C[C@H](O)CC[C@]4(C)[C@H]3CC[C@]12C`, the TGI in the assay on SF-295 CNS, with A549 NSCLC, in the assay with SK-MEL-2 melanoma, in the assay on MALME-3M melanoma, in the assay on SK-OV-3 ovarian and in the assay with 786-0 renal was greater than 100 µM throughout. The TGI with NCI-H460 lung, in the assay with SK-MEL-5 melanoma, in the assay on OVCAR-5 ovarian, in the assay on OVCAR-3 ovarian and with MDA-N was greater than 100 µM throughout.
